According to article PMC6208348 (Nature Communications, 2018):

Assays:
[1] = target: T1, L. longbeachae LUSH SH2 domain (Legionella longbeachae, UniProt D3HPG5); format: binding
T1 construct: gene LLO_0448

[2] = target: T2, L. longbeachae LeSH (Legionella longbeachae, UniProt D3HJY4)
T2 construct: gene LLO_2327
T2 sequence (D3HJY4 1-167 limits assumed): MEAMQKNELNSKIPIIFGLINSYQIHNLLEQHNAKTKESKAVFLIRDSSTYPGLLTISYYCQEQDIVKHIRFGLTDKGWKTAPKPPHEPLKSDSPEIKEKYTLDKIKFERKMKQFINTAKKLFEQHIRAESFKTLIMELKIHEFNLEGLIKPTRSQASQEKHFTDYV

T1 sequence (D3HPG5 3-171 limits assumed): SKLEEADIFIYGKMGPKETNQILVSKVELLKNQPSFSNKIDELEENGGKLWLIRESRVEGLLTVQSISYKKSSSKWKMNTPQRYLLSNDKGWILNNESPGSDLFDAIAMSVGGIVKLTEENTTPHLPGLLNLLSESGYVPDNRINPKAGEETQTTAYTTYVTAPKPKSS

Structure (SMILES)	Kd [1] [nM]	X-ray crystal structure of complex [2]
N[C@@H](Cc1ccc(OP(=O)(O)O)cc1)C(=O)NCC(=O)O [pY-G dipeptide]	810	
N[C@@H](Cc1ccc(OP(=O)(O)O)cc1)C(=O)O [phosphotyrosine]		crystal structures of LeSH in complex with three different pTyr ligands, including the phosphotyrosine itself
